Reference: patent publication US20140357512A1, “HISTONE DEACETYLASE (HDAC) BIOMARKERS IN MULTIPLE MYELOMA” (priority 2013, published 2014)

Tested on: human myeloma cell line MM.1S
Test: SILAC acetylated-lysine peptide profiling, HDAC inhibitor vs DMSO (light/heavy ratio)
Format: cell-based
Description: An embodiment of the invention comprises utilizing the SILAC method in order to quantitate changes in protein expression between two or more populations of cells. The SILAC method is a technique based on mass spectrometry that detects differences in protein abundance among samples using non-radioactive isotopic labeling. The SILAC method is known in the art, and described in detail in Ong et al., “Stable Isotope Labeling by Amino Acids in Cell Culture, SILAC, as a Simple and Accurate Approach to Expression Proteomics”, Molecular & Cellular Proteomics, vol. 1, pp. 376-386 (2002), which is incorporated herein by reference in its entirety.
Briefly, the SILAC method involves growing two populations of cells in cell culture. The first population of cells is grown in growth media containing normal amino acids (“normal media”). The second population of cells is grown in media lacking a standard essential amino acid (such as lysine), but is then supplemented with a non-radioactive, isotopically labeled form of that essential amino acid (such as lysine labeled with ^13C atoms, rather than normal ^12C atoms), which is called “heavy media”. When the two populations of cells are each growing in the medium, they incorporate the amino acids into all of their proteins. The growth of cells maintained in the heavy media is no different from that in normal media. All peptides containing the heavy amino acids are heavier than their normal counterparts. The cells from each of the two populations of cells are lysed. The lysates from each of the two cell populations are then combined. The combined cell lysates are then analyzed by mass spectrometry. Pairs of chemically identical peptides of different stable isotope composition can be differentiated in a mass spectrometer due to their difference in mass. The ratio of peak intensities in the mass spectrum for such peptide pairs reflects the abundance ratio for the two proteins.
This example describes SILAC studies that were performed to compare the effects of three different HDAC inhibitors (Compound A, Compound B, and tubastatin A) to a control on a human multiple myeloma cell line. The HDAC inhibitors were also compared amongst themselves to determine differences in their effects.
A human myeloma cell line MM.1S was grown using either ^12C (light) or ^13C (heavy) lysine containing culture medium. The “heavy” cells were treated with DMSO as the control, and the “light” cells were treated with a single HDAC inhibitor at 37° C. for 6 hours. The heavy and light cells were lysed, and the lysates were mixed in 1:1 ratio and digested with the protease trypsin. The acetylated lysine containing peptides (due to the action of the HDAC inhibitor) in the digested peptide pool were captured by a non-specific anti-acetylated lysine antibody cocktail (the antibodies identify both light and heavy acetylated peptides), and subjected to mass spectrometry analysis in order to identify thousands of individual peptides.
Thousands of peptides were identified in pairs (^12C and ^13C) due to their known mass differences. The amino acid sequence and quantitative ratio (Light/Heavy) of a given peptide in two differentially treated cell lysates were then determined and annotated with their possible protein (gene) sources.
As stated above, three HDAC inhibitors (Compound A, Compound B, and Tubastatin A) were used. Thus, the SILAC method was performed three times, with a different HDAC inhibitor compared to a control each time. Accordingly, there are three pairs of quantitative data in the table below, i.e., Compound A:DMSO, Compound B:DMSO, and Tubastatin A:DMSO. A cut-off of 1.30 fold of change (increase or decrease) was then used to determine “changed” or “+” in the table, and any peptides with a fold of change less than 1.3 fold were determined to be “unchanged” or “0” in the table. Those peptides that were not identified were marked as “NA” in the table. […]

## O=C(NO)c1cnc(NC2(c3cccc(F)c3)CCCCC2)nc1 [Compound B, 2-((1-(3-fluorophenyl)cyclohexyl)amino)-N-hydroxypyrimidine-5-carboxamide]
[…](ac)HLSASQK (SEQ ID NO: 381), Cytochrome c oxidase subunit 4 isoform 1 mitochondrial [53], COX4I1
  L/H ratio of acetylated peptide: −0.63 log 2
[…](ac)IFK (SEQ ID NO: 157), cDNA FLJ59630 highly similar to Growth hormone-inducible transmembrane protein [76], GHITM
  light to heavy ratio (L/H ratio) of acetylated peptide, log 2 scale: 0.00
[…](ac)IVIQK (SEQ ID NO: 165), Isoform A1-B of Heterogeneous nuclear ribonucleoprotein A1 [161], HNRNPA1
  light to heavy ratio (L/H ratio) of acetylated peptide, log 2 scale: 0.00
[…](ac)K (SEQ ID NO: 242), Vimentin [235], VIM
  light to heavy ratio (L/H ratio) of acetylated peptide, log 2 scale: 0.00
[…](ac)K (SEQ ID NO: 427), Profilin-1 [126], PFN1
  L/H ratio of acetylated peptide: 0.58 log 2
[…](ac)LFR (SEQ ID NO: 136), B-cell receptor-associated protein 31 [95], BCAP31
  light to heavy ratio (L/H ratio) of acetylated peptide, log 2 scale: 0.00
[…](ac)LHIVK (SEQ ID NO: 378), Chloride intracellular channel protein 4 [194], CLIC4
  L/H ratio of acetylated peptide: 0.51 log 2
[…](ac)LLPHIR (SEQ ID NO: 208), 60S acidic ribosomal protein P0 [77], RPLP0
  light to heavy ratio (L/H ratio) of acetylated peptide, log 2 scale: 0.00
[…](ac)VNSK (SEQ ID NO: 430), Isoform 1 of Inorganic pyrophosphatase 2 mitochondrial [69], PPA2
  L/H ratio of acetylated peptide: 0.91 log 2
[…](ac)WK (SEQ ID NO: 453), Lupus La protein [328], SSB
  L/H ratio of acetylated peptide: 0.57 log 2
[…](ac)YLNFVK (SEQ ID NO: 405), Endoplasmin [428], HSP90B1
  L/H ratio of acetylated peptide: 0.77 log 2
[…](ac)YQEALAK (SEQ ID NO: 450), Superoxide dismutase [Mn] mitochondrial [68], SOD2
  L/H ratio of acetylated peptide: −0.67 log 2
[…](ac)[…] (SEQ ID NO: 132), ATP synthase subunit b mitochondrial [221], ATP5F1
  light to heavy ratio (L/H ratio) of acetylated peptide, log 2 scale: 0.00
[…](ac)[…] (SEQ ID NO: 139), cDNA FLJ55574 highly similar to Calnexin [217], CANX
  light to heavy ratio (L/H ratio) of acetylated peptide, log 2 scale: 0.00
[…](ac)[…] (SEQ ID NO: 145), Isoform 1 of Cellular nucleic acid-binding protein [118], CNBP
  light to heavy ratio (L/H ratio) of acetylated peptide, log 2 scale: 0.00
[…](ac)[…] (SEQ ID NO: 372), Calreticulin [98], CALR
  L/H ratio of acetylated peptide: −0.43 log 2
[…](ac)[…] (SEQ ID NO: 387), D-dopachrome decarboxylase [87], DDT
  L/H ratio of acetylated peptide: −0.44 log 2
[…](ac)[…] (SEQ ID NO: 399), Guanine nucleotide-binding protein subunit beta-2-like 1 [139], GNB2L1
  L/H ratio of acetylated peptide: 0.54 log 2
[…](ac)[…] (SEQ ID NO: 408), Isoform 1 of Isocitrate dehydro-genase [NAD] subunit alpha mitochondrial [77], IDH3A
  L/H ratio of acetylated peptide: −0.44 log 2
[…](ac)[…] (SEQ ID NO: 455), Isoform 1 of Translocon-associated protein subunit alpha [102], SSR1
  L/H ratio of acetylated peptide: −0.88 log 2
[…](ac)[…] (SEQ ID NO: 466), Voltage-dependent anion-selective channel protein 1 [266], VDAC1
  L/H ratio of acetylated peptide: −0.66 log 2
[…](ac)[…] (SEQ ID NO: 469), Isoform 1 of Voltage-dependent anion-selective channel protein 3 [266], VDAC3
  L/H ratio of acetylated peptide: −0.71 log 2
cDNA FLJ55574 highly similar to Calnexin [138], CANX, drug:DMSO
  light to heavy ratio (L/H ratio) of acetylated peptide YDGK(ac)WEVEEMK (SEQ ID NO: 274): 0.00 log 2
cDNA FLJ55574 highly similar to Calnexin [172], CANX, drug:DMSO
  light to heavy ratio (L/H ratio) of acetylated peptide LNK(ac)PFLFDTK (SEQ ID NO: 327): 0.43 log 2
cDNA FLJ56425 highly similar to Very-long-chain specific acyl-CoAdehydrogenase mitochondrial [681], ACADVL, drug:DMSO
  light to heavy ratio (L/H ratio) of acetylated peptide NFK(ac)SISK (SEQ ID NO: 356): 0.44 log 2
cDNA FLJ75110 highly similar to Homo sapiens PHD finger protein 15 (PHF15) mRNA [38], gene PHF15, inhibitor:DMSO
  light to heavy ratio (L/H ratio) of acetylated peptide LPSSTK(ac)SGWPR (SEQ ID NO: 500): 0.00 log 2
cDNA FLJ77177 highly similar to Homo sapiens arginine-rich mutated in early stage tumors (ARMET) mRNA [97], MANF, drug:DMSO
  light to heavy ratio (L/H ratio) of acetylated peptide IINEVSK(ac)[…] (SEQ ID NO: 341): −0.58 log 2
cDNA FLJ77422 highly similar to Homo sapiens RNA binding protein autoantigenic (hnRNP-associated with lethal yellow homolog (mouse)) transcript variant 1 mRNA (Fragment) [165], RALY, drug:DMSO
  light to heavy ratio (L/H ratio) of acetylated peptide TNVPVK(ac)LFAR (SEQ ID NO: 348): 0.39 log 2
Histone cluster 2 H3 pseudogene 2 [80], HIST2H3PS2, drug:DMSO
  light to heavy ratio (L/H ratio) of acetylated peptide EIAQEFK(ac)TDLR (SEQ ID NO: 337): −0.49 log 2
Pyruvate dehydrogenase E1 component subunit alpha somatic form mitochondrial isoform 2 precursor [351], PDHA1, drug:DMSO
  light to heavy ratio (L/H ratio) of acetylated peptide SK(ac)SDPIMLLK (SEQ ID NO: 255): 0.00 log 2
Regulator of differentiation 1 isoform 2 [64], ROD1, drug:DMSO
  light to heavy ratio (L/H ratio) of acetylated peptide VTNLLMLK(ac)GK (SEQ ID NO: 350): 0.83 log 2
Regulator of differentiation 1 isoform 2 [236], gene ROD1, inhibitor:DMSO
  light to heavy ratio (L/H ratio) of acetylated peptide LTSLNVK(ac)YNNDK (SEQ ID NO: 590): 0.00 log 2
Triosephosphate isomerase isoform 2 [231], TPI1, TPI1P1, drug:DMSO
  light to heavy ratio (L/H ratio) of acetylated peptide GWLK(ac)[…] (SEQ ID NO: 278): 0.00 log 2
